Molecules are shown by their SMILES. The source made the active and inactive calls. The calls are words filed in the database; no cut-off is given here.

Assay [1] has as its target T1, Indoleamine 2,3-dioxygenase 1 (Homo sapiens, UniProt P14902). The experiment in a line: Inhibition of human recombinant indoleamine 2,3-dioxygenase.
Target sequence in this assay (P14902 whole entry): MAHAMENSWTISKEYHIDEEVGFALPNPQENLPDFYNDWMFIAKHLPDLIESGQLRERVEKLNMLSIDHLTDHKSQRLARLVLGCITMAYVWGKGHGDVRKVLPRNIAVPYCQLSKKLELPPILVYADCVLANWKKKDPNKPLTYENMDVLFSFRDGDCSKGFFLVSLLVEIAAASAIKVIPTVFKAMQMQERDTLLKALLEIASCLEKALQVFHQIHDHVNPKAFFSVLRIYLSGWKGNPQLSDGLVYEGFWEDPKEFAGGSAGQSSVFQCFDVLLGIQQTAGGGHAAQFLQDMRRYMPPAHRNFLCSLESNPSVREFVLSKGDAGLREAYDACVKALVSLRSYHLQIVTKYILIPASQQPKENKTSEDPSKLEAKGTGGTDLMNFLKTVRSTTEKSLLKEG
Assay [2] addresses T1, Indoleamine 2,3-dioxygenase 1. The assay can be described thus: Inhibition of human recombinant indoleamine 2,3-dioxygenase at =< 500000 nM.
Target sequence in this assay (P14902 whole entry, looked up): as the sequence (P14902 whole entry) above

As usually defined, the Ki is the dissociation constant of the complex between target and ligand, obtained from inhibition or displacement. Consider `O=C1C=CC(=O)c2[nH]ccc21`, for which, in assay [1], the Ki worked out at 190 nM.
With `O=C(NCCc1c[nH]c2c1C(=O)C=CC2=O)OCc1ccccc1`, in assay [1], the Ki amounted to 1490 nM.
As for `NCCc1c[nH]c2c1C(=O)c1c(c(-c3ccccc3)c3ccccc3c1-c1ccccc1)C2=O`, the result in assay [2] was inactive.
For the compound `Oc1cccc2[nH]ccc12`, the outcome in assay [2] was inactive.

The record behind these values is ChEMBL document CHEMBL1150237, “Synthesis of indoleamine 2,3-dioxygenase inhibitory analogues of the sponge alkaloid exiguamine A” (J Med Chem, 2008).
